Earlier results, collected in US20180373846A1, “METHODS AND SYSTEMS FOR ORGANIC SOLUTE SAMPLING OF AQUEOUS AND HETEROGENEOUS ENVIRONMENTS” (University of Maryland, Baltimore, priority 2014, published 2018).

Columns and labels:
[1] = experimental hydration free energy
[2] = Table 2, reference 31
T4-L99A = T4-L99A (Enterobacteria phage T4, UniProt P00720, L99A)
β2AR = β2AR (Homo sapiens, UniProt P07550); details: experimental, from cited references

Molecule | HFE^exp [1] [kcal/mol] | HFE^fep [2] [kcal/mol] | experimental binding affinity (T4-L99A) [kcal/mol] | ΔGbind (β2AR)
CC=O [Acetaldehyde, acetaldehyde] | -3.5 | -4.43 | – | –
CC(=O)O [Acetate] | -79.1 | -96.5 | – | –
c1ccccc1 [Benzene, benzene] | -0.83 | -0.71 | -5.19 ± 0.16 | –
NC=O [Formamide, formamide] | -14 | -10.71 | – | –
c1c[nH]cn1 [Imidazole, imidazole] | – | -12.55 | – | –
CO [Methanol, methanol] | -5.1 | -6.16 | – | –
CN [Methylammonium, methylammonium] | -71.3 | -52.0 | – | –
Nc1c(Cl)cc([C@@H](O)CNCCCCCCOCCc2ccccn2)cc1Cl [Picumeterol] | – | – | – | −12.23
CC(C)NCC(O)COc1cccc2[nH]ccc12 (centres unmarked) [Pindolol] | – | – | – | −12.43
CCC [Propane, propane] | 1.96 | 1.60 | – | –
O [Water, water] | -5.6 | – | – | –
Hydroxybenzyl isoproterenol | – | – | – | −9.72
